Data set [1] has as its system hsa-miR-1262.
Data set [2] has as its system hsa-miR-98.
Data set [3] relates to HepG2 cells. Description: IC20-72 hours value used as exposure dose in HepG2 cells. In kind it is cell-based, human. The protocol: All measurements were performed in triplicate.
The subject of data set [4] is hsa-miR-1246.
For data set [5], the system named is hsa-miR-1229.
Data set [6] relates to hsa-miR-302b.
Data set [7] concerns hsa-miR-30c-1*.
Data set [8] concerns microRNA 1262, microRNA 98 and microRNA 30c-1.
The test system of data set [9] is hsa-miR-885-3p.
Data set [10] relates to hsa-miR-502-3p.
Data set [11] relates to hsa-miR-888*.
Data set [12] concerns hsa-miR-891b.
For data set [13] the following is noted: GTX/NGTX class as in Tables 3-7; cited from earlier work.
Data set [14] concerns bacteria. To be noted: cited from earlier work.
[15] abbreviates: HepG2 cells exposed at Table 1 dose.
[16] abbreviates: Homo sapiens, HepG2 cells, IC20-72 hours, read-out: Dose (IC20-72 hours value).
[17] abbreviates: correct predictions of three independent experiments.
[18] abbreviates: number of the three microRNAs predicting correctly.
Setting [19] is: HepG2 cells, IC20-72 hours, read-out: Dose (IC20-72 hours value).

Where two headings read alike, the source gives them in different places.

Usually IC20 stands for the point of the concentration-response curve where the effect stands at 20%. In the case of Aflatoxin B1, the “Score / correctness of miRNA prediction, 1262 (number of correct predictions of three independent experiments)” value in data set [1] was “(2/3)”. Besides, the “Score / correctness of miRNA prediction, 98 (number of correct predictions of three independent experiments)” value in [2] is recorded as “(2/3)”. Also, the IC20 in data set [3] (read-out: Dose (IC20-72 hours value)) was determined as 1 µM. The “correctness of microRNA prediction, 1246” value in [4] is “(1/3)”. The “correctness of microRNA prediction, 1229” value in data set [5] is listed as “(1/3)”. Also, in [6], the “correctness of microRNA prediction, 302b” value was “(2/3)”. Besides, the “Score / correctness of miRNA prediction, 30c-1 (number of correct predictions of three independent experiments)” value in data set [7] is reported as “(2/3)”. The “Aggregate result, correct” value in data set [8] is 3/3. For the same molecule, in data set [9], the “correctness of microRNA prediction, 885-3p” value is recorded as “(1/3)”. For the same molecule, in [10], the “correctness of microRNA prediction, 502-3p” value was “(2/3)”. In addition, in data set [11], the “correctness of microRNA prediction, 888*” value is given as “(3/3)”. Further, the “correctness of microRNA prediction, 891b” value in data set [12] was “(2/3)”.

Take `CC1(C)S[C@@H]2[C@H](NC(=O)[C@H](N)c3ccccc3)C(=O)N2[C@H]1C(=O)O` [Ampicillin trihydrate]: the “Score / correctness of miRNA prediction, 1262 (number of correct predictions of three independent experiments)” value in data set [1] (setting [15]) is reported as “(2/3)”. The “Score / correctness of miRNA prediction, 98 (number of correct predictions of three independent experiments)” value in data set [2] (setting [15]) is listed as “(3/3)”. The IC20 in [3] (setting [16]) worked out at 250 µM. Moreover, in [4] (setting [17]), the “correctness of microRNA prediction, 1246” value is reported as “(1/3)”. For the same molecule, in data set [5] (setting [17]), the “correctness of microRNA prediction, 1229” value is “(3/3)”. The “correctness of microRNA prediction, 302b” value in data set [6] (setting [17]) was “(2/3)”. The “Score / correctness of miRNA prediction, 30c-1 (number of correct predictions of three independent experiments)” value in [7] (setting [15]) is on record as “(3/3)”. Moreover, the “Aggregate result, correct” value in data set [8] (setting [18]) is 3/3. Moreover, the “correctness of microRNA prediction, 885-3p” value in data set [9] (setting [17]) is “(3/3)”. Moreover, the “correctness of microRNA prediction, 502-3p” value in data set [10] (setting [17]) is listed as “(3/3)”. In addition, the “correctness of microRNA prediction, 888*” value in data set [11] (setting [17]) is listed as “(3/3)”. The “correctness of microRNA prediction, 891b” value in [12] (setting [17]) was “(2/3)”.

On to `c1ccc2c(c1)cc1ccc3cccc4ccc2c1c34` [Benzo[a]pyere], for which, in [1] (setting [15]), the “Score / correctness of miRNA prediction, 1262 (number of correct predictions of three independent experiments)” value is “(2/3)”. Moreover, the “Score / correctness of miRNA prediction, 98 (number of correct predictions of three independent experiments)” value in [2] (setting [15]) was “(2/3)”. Besides, in data set [3] (setting [19]), the IC20 came out at 2 µM. Further, in data set [4] (setting [17]), the “correctness of microRNA prediction, 1246” value is reported as “(3/3)”. For the same molecule, in data set [5] (setting [17]), the “correctness of microRNA prediction, 1229” value is “(3/3)”. For the same molecule, the “correctness of microRNA prediction, 302b” value in [6] (setting [17]) was “(2/3)”. The “Score / correctness of miRNA prediction, 30c-1 (number of correct predictions of three independent experiments)” value in data set [7] (setting [15]) is on record as “(2/3)”. Further, the “Aggregate result, correct” value in data set [8] (setting [18]) was 3/3. Also, the “correctness of microRNA prediction, 885-3p” value in data set [9] (setting [17]) is recorded as “(2/3)”. Moreover, in data set [10] (setting [17]), the “correctness of microRNA prediction, 502-3p” value is given as “(2/3)”. Further, in [11] (setting [17]), the “correctness of microRNA prediction, 888*” value is reported as “(2/3)”. Besides, the “correctness of microRNA prediction, 891b” value in data set [12] (setting [17]) is given as “(3/3)”.

Consider `N.N.[Cl][Pt][Cl]` [Cisplatin], for which the GTX in vivo result in data set [13] was “GTX”. Further, the IC20 in [3] (setting [19]) was determined as 7 µM. In addition, in data set [8] (setting [18]), the “Aggregate result, correct” value is recorded as 3/3.

As for `Oc1cccc2cccnc12` [8-quinolinol], the “Prediction, miRNA 98” value in data set [2] is recorded as “NGTX (key: GTX: hsa-miR-98: Prediction if Expression is above Reference value; NGTX: hsa-miR-98: Prediction if Expression is below Reference value)”. Also, in data set [2] (human), the “Score / correctness of miRNA prediction, 98 (number of correct predictions of three independent experiments)” value was “(3/3)”. For the same molecule, the IC20 in [3] (Homo sapiens, HepG2, read-out: Dose (IC20-72 hours value)) is 15 µM. The “correctness of microRNA prediction, 1246” value in [4] (human) is given as “(0/3)”. Also, in data set [5] (human), the “correctness of microRNA prediction, 1229” value is given as “(3/3)”. Besides, the “correctness of microRNA prediction, 302b” value in data set [6] (human) was “(1/3)”. Also, the “Prediction, miRNA 30c-1” value in data set [7] is on record as “GTX (key: GTX: hsa-miR-30c-1*: Prediction if Expression is above Reference value; NGTX: hsa-miR-30c-1*: Prediction if Expression is below Reference value)”. Further, the “Score / correctness of miRNA prediction, 30c-1 (number of correct predictions of three independent experiments)” value in data set [7] (human) is listed as “(1/3)”. Moreover, in data set [8], the “Aggregate result, result” value is “NGTX”. Besides, the “Aggregate result, correct” value in data set [8] (human) is on record as 2/3. Moreover, the “correctness of microRNA prediction, 885-3p” value in [9] (human) was “(1/3)”. For the same molecule, the “correctness of microRNA prediction, 502-3p” value in [10] (human) is reported as “(2/3)”. For the same molecule, in [11] (human), the “correctness of microRNA prediction, 888*” value is recorded as “(3/3)”. Further, the Ames test result in data set [14] is “+”. Further, the “correctness of microRNA prediction, 891b” value in [12] (human) was “(3/3)”.

Take `O=c1c(O)c(-c2ccc(O)c(O)c2)oc2cc(O)cc(O)c12` [Quercetin]: the “Score / correctness of miRNA prediction, 1262 (number of correct predictions of three independent experiments)” value in data set [1] (setting [15]) is listed as “(3/3)”. In addition, the “Score / correctness of miRNA prediction, 98 (number of correct predictions of three independent experiments)” value in data set [2] (setting [15]) was “(1/3)”. Moreover, the GTX in vivo entry in data set [13] was “NGTX”. The IC20 in data set [3] (setting [16]) was found to be 50 µM. Besides, in [4] (setting [17]), the “correctness of microRNA prediction, 1246” value is listed as “(2/3)”. Moreover, in [5] (setting [17]), the “correctness of microRNA prediction, 1229” value is “(1/3)”. In addition, the “correctness of microRNA prediction, 302b” value in [6] (setting [17]) is listed as “(1/3)”. Moreover, in data set [7] (setting [15]), the “Score / correctness of miRNA prediction, 30c-1 (number of correct predictions of three independent experiments)” value is given as “(3/3)”. The “Aggregate result, correct” value in data set [8] (setting [18]) is 2/3. Besides, the “correctness of microRNA prediction, 885-3p” value in data set [9] (setting [17]) is given as “(1/3)”. In addition, the “correctness of microRNA prediction, 502-3p” value in data set [10] (setting [17]) was “(1/3)”. Also, in [11] (setting [17]), the “correctness of microRNA prediction, 888*” value is reported as “(1/3)”. Further, the “correctness of microRNA prediction, 891b” value in data set [12] (setting [17]) is on record as “(2/3)”.

Regarding `C[C@]12CC[C@@H]3c4ccc(O)cc4CC[C@H]3[C@@H]1CC[C@@H]2O` [17beta-estradiol, 17 beta-estradiol], the GTX in vivo entry in [13] is recorded as “NGTX”. In addition, the IC20 in [3] (setting [19]) was 30 µM. The “Aggregate result, correct” value in [8] (setting [18]) was 3/3.

Turning to `Clc1cc2c(cc1Cl)Oc1cc(Cl)c(Cl)cc1O2` [2,3,7,8-tetrachloro dibenzo-p-dioxin], the “Score / correctness of miRNA prediction, 1262 (number of correct predictions of three independent experiments)” value in [1] (setting [15]) was “(3/3)”. Further, the “Score / correctness of miRNA prediction, 98 (number of correct predictions of three independent experiments)” value in data set [2] (setting [15]) is listed as “(3/3)”. The GTX in vivo entry in data set [13] is given as “NGTX”. In addition, in [3] (setting [16]), the IC20 turned out to be 0.01 µM. The “correctness of microRNA prediction, 1246” value in [4] (setting [17]) is on record as “(3/3)”. Besides, in data set [5] (setting [17]), the “correctness of microRNA prediction, 1229” value is recorded as “(2/3)”. The “correctness of microRNA prediction, 302b” value in data set [6] (setting [17]) is “(2/3)”. Moreover, the “Score / correctness of miRNA prediction, 30c-1 (number of correct predictions of three independent experiments)” value in [7] (setting [15]) is on record as “(2/3)”. For the same molecule, the “Aggregate result, correct” value in [8] (setting [18]) is recorded as 3/3. For the same molecule, in data set [9] (setting [17]), the “correctness of microRNA prediction, 885-3p” value is reported as “(3/3)”. Further, the “correctness of microRNA prediction, 502-3p” value in data set [10] (setting [17]) is “(2/3)”. The “correctness of microRNA prediction, 888*” value in [11] (setting [17]) is recorded as “(1/3)”. Further, in [14], the Ames test result is “−”. The “correctness of microRNA prediction, 891b” value in data set [12] (setting [17]) is “(2/3)”.

The values above are taken from US20130244896A1, “IN VITRO METHOD FOR PREDICTING WHETHER A COMPOUND IS GENOTOXIC IN VIVO” (priority 2012, published 2013).
